Data set [1] relates to healthy primiparous women at ≧40 weeks gestation. The experiment in a line: Clinical study: change from baseline in Bishop score and cervical dilation (cervical ripening), 24 h IV infusion. The format is in vivo, human. The arrangement: key to Total Bishop Score - Change from Baseline, Minimum / Total Bishop Score - Change from Baseline, Maximum / Total Bishop Score - Change from Baseline, Mean / Total Bishop Score - Change from Baseline, Median: Bishop score points; total score ranges 0 to 13. Conditions: for Total Bishop Score - Change from Baseline, Maximum / Total Bishop Score - Change from Baseline, Median / Total Bishop Score - Change from Baseline, Minimum / Total Bishop Score - Change from Baseline, Mean: 75 μg/kg/d IV, ITT. The procedure: Overview of the Clinical Study. The current study was designed with two objectives. The first was to determine the safety of intravenous administration of recombinant human relaxin in women at term for 24 hours. The second objective was to determine whether a high dose of relaxin administered by this method for 24 hours could ripen the cervix or induce labor. The primary efficacy endpoint was change from baseline in Bishop score, which is a composite, well accepted measurement of cervical ripening (Bishop, 1964). The score has 5 components, all of which contribute to the cervical changes necessary for vaginal delivery of the baby: dilation, effacement, station, consistency and position of cervix.
Study Subjects. Study subjects were healthy primiparous women at ≧40 weeks gestation who were admitted to the hospital for scheduled induction of labor. This study was conducted in compliance with the requirements of the protocol, International Conference on Harmonization (ICH), Good Clinical Practices (GCP), FDA, local regulations and BAS Medical, Inc.'s standard operating procedures (SOP). The investigators were responsible for obtaining informed consent from each patient participating in the study. All pertinent aspects of the study were explained to the patient before he or she signed the informed consent form. Informed consent was approved by local ethics committees and was obtained from the patient before any activity or treatment was undertaken which was not part of routine care. This included, but was not limited to, the performance of diagnostic or therapeutic procedures and the administration of the first dose of the study medication.
Part A was a multicenter, randomized, double-blind, placebo-controlled, dose escalation study of 18 subjects at ≧40 weeks gestation and who were scheduled for induction. Doses of 7.5, 25 and 75 mcg/kg/day of relaxin were tested. Subjects were treated in cohorts of 6 and randomly assigned to receive relaxin or placebo in a 4:2 ratio, respectively. Dose escalation to the next dose level occurred once safety data was reviewed.
(§1) Eligible patients were admitted to the hospital at least 24-hours prior to scheduled induction. Either relaxin or matching placebo was administered by continuous intravenous infusion for 24 hours prior to induction. Subjects were monitored throughout the administration of study medication for blood pressure and heart rate, as well as for uterine contractions and the onset of labor. Fetal nonstress testing and heart rate monitoring were conducted for evaluation of fetal well-being. Blood samples were drawn for serum chemistry and hematology at baseline, 12 and 24 hr of dosing, and at 2 days, 1 week and 4 weeks after delivery. Samples for the evaluation of serum relaxin levels were drawn at baseline, 30 minutes, 1, 4, 6, 12, and 24 hr of dosing and a sample of cord blood was also drawn for relaxin measurement. A sample was also drawn from the study subject at 2 days post-delivery. Samples for measurement of development of anti-relaxin antibodies were drawn prior to dosing and at 1 and 4 weeks post-delivery. Neonates were evaluated for relaxin levels at 2 days and for the presence of anti-relaxin antibodies at 1 and 4 weeks.
(§2) Part B of the study was a multi-center, randomized, double-blind, placebo-controlled, parallel-group study of 50 subjects at ≧40 weeks gestation and who were scheduled for induction. Subjects were randomized in a 1:1 ratio to the most appropriate dose of relaxin determined from Part A or to placebo. As in Part A, eligible subjects were administered an intravenous infusion of relaxin or placebo for 24 hours prior to induction. Subjects and neonates were evaluated in a manner identical to that in Part A for all assessments.
The primary efficacy endpoint was change from baseline in Bishop score at 6, 12 and 24 hours (or end of study drug administration). […]

For data set [2] the test system is unchanged. The experiment in a line: Clinical study: secondary efficacy endpoints related to delivery. The format is in vivo, human. Here is the method:
as §1, §2
The primary efficacy endpoint was change from baseline in Bishop score at 6, 12 and 24 hours (or end of study drug administration). The score ranges from 0 (absence of any cervical changes) to a maximum of 13, representing a cervix that is completely dilated (>5 cm), effaced (>80%), soft, at a +1 or +2 station, and anteriorly positioned (Bishop, 1964). A number of secondary efficacy endpoints were also explored: Time to complete dilation; proportion of subjects with Bishop score change>3; proportion of subjects with Bishop score>5; proportion of subjects with Bishop score>8; time to active labor; time to delivery (vaginal or c-section); frequency of uterine contractions; incidence of uterine hyperstimulation requiring terbutaline treatment or discontinuation of study drug (relaxin or placebo) infusion; incidence of spontaneous labor; rates of c-section; incidence of abnormal fetal heart rate tracings; changes from baseline in systolic and diastolic blood pressure; changes from baseline in serum creatinine and predicted creatinine clearance as determined by the Cockroft-Gault formula.
Statistical Analysis. Analyses were conducted on the Intent-to-treat (ITT) population, which consisted of all randomized subjects and on the Per-protocol (PP) population, which consisted of all randomized subjects who received study medication for at least 18 hours (75% compliance) and had baseline and 24 hour (or end of treatment) assessments of the Bishop Score. For efficacy comparisons, the patients from Part A that received the active dose administered in Part B are pooled with the patients from Part B (pooled relaxin group) as are all placebo patients from parts A and B (pooled placebo group).

The nature of data set [3]: Serum relaxin concentrations (Relaxin ELISA). The format is in vivo, human. Here is the method:
as §1
Relaxin ELISA. The measurement of serum relaxin concentrations is based on an enzyme immunoassay technique using 96-well microtiter plates coated with affinity purified goat-anti-relaxin antibodies. Pre-diluted controls and unknown samples were pipetted into the wells of the microtiter plate and incubated at 2-8° C. allowing for any relaxin present to bind to the anti-relaxin antibodies. After an overnight incubation the plates were washed to remove any non-reactive serum components. […] After a 20-minute incubation, an aliquot of 2M sulfuric acid was added to stop the color reaction and the absorbance was measured at 450 nm (reference 650 nm) using a plate spectrophotometer. […] The relaxin levels were quantified according to a standard curve generated by measuring purified recombinant relaxin in a 20% human serum matrix utilizing a four-parameter curve fit equation. […]
In general terms: In an ELISA, binding on a coated surface is turned into a signal by an enzyme label.

The subject of data set [4] is healthy primiparous women at ≧40 weeks gestation. The experiment in a line: Clinical study: safety (adverse events in subjects, fetuses, neonates). The format is in vivo, human. The conditions noted are these: for Serious adverse events in neonates (number): none related to the study drug. Here is the method:
Safety. Safety was assessed by means of reported and observed adverse events, physical examination and 12-lead ECG findings, vital sign measurements, and the results of clinical laboratory assessments. Serum clinical chemistry samples were taken at pre-dose, 12 and 24 hours following the start of dosing, 2 days, 1 week and 4 weeks postpartum. Maternal vital signs included temperature, heart rate and blood pressure. These evaluations were performed at screening, pre-dose, during dosing, 24-48 hours post-dosing and at 2 days, 1 week and 4 weeks post-partum. Measurements during the 24-48 hours post-dosing period were taken at 28, 32, 36, 40, 44 and 48 hours. Neonatal vital signs included temperature, pulse, respiration and blood pressure. All vital signs measurements were done at delivery, 2 days, 1 week and 4 weeks post-partum.
Adverse events in study subjects were recorded according to the time of onset, i.e. dosing period (0-24 hours), 24-hours post-infusion (24-48 hours) and follow-up (>48 hours). Adverse events reported in fetuses and in neonates were also summarized by treatment group. For laboratory tests (hematology, serum chemistry, urinalysis), vital signs, physical examination and ECGs summary statistics were provided for baseline and changes from Baseline for each scheduled time by treatment group. Post-hoc repeated measure analyses of systolic and diastolic blood pressure were also performed.

Another data set concerns myometrium. Conditions: in vitro, nonpregnant and pregnant uteri (MacLennan 1991); cited from earlier work.
Another data set relates to nonpregnant women. The conditions noted are these: administered intravaginally, cited from earlier work.
The next data set has as its system women. The conditions noted are these: cited from earlier work.
The subject of the next data set is uterine contractions. Conditions: cited from earlier work; for stopping uterine contractions: vaginal progesterone, injection of 17 alpha-hydroxyprogesterone caproate.
Where [5] appears, read: Last Obs., pooled relaxin group.
The mark [6] stands for this setting: pooled relaxin group, p 0.153 vs placebo.
[7] abbreviates: pooled relaxin group, p 0.213 vs placebo.

Turning to relaxin, the “Total Bishop scores in the lower relaxin dose groups” value in data set [1] (7.5 and 25 μg/kg/day, Part A, data not shown) is given as “no different than that seen in the pooled placebo group”. In addition, the “Total Bishop Score - Change from Baseline, Maximum” value in data set [1] (6 hours, pooled relaxin group) amounted to 9; in data set [1] (12 hours, pooled relaxin group), 7; in data set [1] (24 hours, pooled relaxin group), 7; in data set [1] (setting [5]) it was 9. Further, the “Total Bishop Score - Change from Baseline, Median” value in data set [1] (6 hours, pooled relaxin group) was determined as 1.00; in data set [1] (12 hours, pooled relaxin group), 2.00; in data set [1] (24 hours, pooled relaxin group) it was 4.00; in data set [1] (setting [5]) it was 4.00. For the same compound, the “Total Bishop Score - Change from Baseline, Minimum” value in data set [1] (6 hours, pooled relaxin group) came out at 0; in data set [1] (12 hours, pooled relaxin group) it was 0; in data set [1] (24 hours, pooled relaxin group), 0; in data set [1] (setting [5]), 0. Besides, the “Total Bishop Score - Change from Baseline, Mean” value in data set [1] (6 hours, pooled relaxin group, P 0.2407 vs pooled placebo) was 1.55; in data set [1] (12 hours, pooled relaxin group, P 0.1085 vs pooled placebo) it was 2.11; in data set [1] (24 hours, pooled relaxin group, P 0.2507 vs pooled placebo), 3.26; in data set [1] (Last Obs. (last available value post-baseline), pooled relaxin group, P 0.4900 vs pooled placebo) it was 3.59. Further, the “increase in cervical dilation from the initial dilation” value in data set [1] (24 hour time point, pooled relaxin group 75 mcg/kg/day IV (placebo 1.39 cm)) was 0.69 cm. Further, in data set [1] (any of the observation times (6, 12, 24 hours)), the “Bishop score, difference between pooled relaxin and placebo groups” value is “no statistically significant differences”. The “cervical dilation compared to the placebo group” value in data set [1] (pooled relaxin group, p<0.024 by t-test) was “significantly reduced”. In data set [2] (pooled relaxin group, n = 20, p 0.644 vs placebo), the “Time to Vaginal Delivery (mean + SD)” value came to 62 ± 40 h. The “Time to Onset of Active Labor” value in data set [2] (pooled relaxin group, n = 26, p 0.412 vs placebo) amounted to 53 h. Besides, the “Time to Delivery for Vaginal + C-section (mean + SD)” value in data set [2] (pooled relaxin group, n = 29, p 0.251 vs placebo) was determined as 69 ± 40 h. Moreover, the “Incidence of Vaginal Deliveries” value in data set [2] (setting [6]) is “(69%)”. In addition, in data set [2] (setting [6]), the “Incidence of Vaginal Deliveries (subjects/total)” value is recorded as 20/29. Moreover, the “Incidence of Spontaneous Labor” value in data set [2] (setting [7]) was “(41%)”. Further, the “Incidence of Spontaneous Labor (subjects/total)” value in data set [2] (setting [7]) is listed as 12/29. Moreover, the “effect on incidence or time to vaginal delivery, incidence of spontaneous labor or time to the onset of labor” value in data set [2] (relaxin infusion vs placebo) is given as “did not significantly affect”. In data set [3] (2 days post partum), the “serum relaxin concentration post partum” value is reported as “just above levels of detection”. For the same compound, the “peak mean serum relaxin concentration” value in data set [3] (relaxin group, 75 mcg/kg/day IV infusion, at 12 hours of dosing) is reported as 13.0 ng/mL. The “Mean serum relaxin concentration at baseline” value in data set [3] (relaxin group, baseline, reflecting endogenous relaxin levels) is 0.293 ng/mL. Further, the “Serious adverse events in neonates (number)” value in data set [4] (7.5 mcg/kg/d dose group) is on record as “one”; in data set [4] (pooled relaxin group (75 mcg/kg/day)), 4. Also, in data set [4] (intravenous, 7.5-75 mcg/kg/day, pregnant women at term), the “adverse effects over the entire dosage range” value is given as “no relevant adverse effects”. Further, the “Serious adverse events in fetuses (number of events)” value in data set [4] (pooled relaxin group, fetal hypoxia of moderate severity, not related to the study drug) is “Two”. The “effect on fetal heart rate” value in data set [4] (relaxin treatment) was “no effect”. Besides, in the data set on myometrium, the “effect on myometrial contractions” value is “inhibits myometrial contractions of nonpregnant uteri, but does not affect the myometrium of pregnancy”. Moreover, the “effect on cervical ripening” value in the data set with nonpregnant women (nonpregnant women) is “did not show any effect”. In addition, the safety of administration entry in the data set with nonpregnant women was “safe and associated with minimal adverse side effects”. In addition, in the data set with nonpregnant women, the “serum levels of relaxin after treatment” value was “did not increase”.

As to porcine relaxin, in the data set with women (intracervical gel vs placebo (MacLennan 1986)), the spontaneous labor result is “more likely to go into spontaneous labor”. Further, in the data set on women (intracervical pellet, randomized double-blind controlled trial (Evans et al. 1983)), the “cervical effacement and time to delivery” value was “greater cervical effacement (thinning) and a shorter time to delivery”.

For the compound `CC(=O)[C@H]1CC[C@H]2[C@@H]3CCC4=CC(=O)CC[C@]4(C)[C@H]3CC[C@]12C` [progesterone], the stopping uterine contractions entry in the data set on uterine contractions is “effective in stopping uterine contractions”.

As to `CCCCCC(=O)O[C@]1(C(C)=O)CC[C@H]2[C@@H]3CCC4=CC(=O)CC[C@]4(C)[C@H]3CC[C@@]21C` [17 alpha-hydroxyprogesterone caproate], the “safety questioned by the FDA” value in the data set on uterine contractions (Meis et al. 2003, FDA advisory committees 2006) is “increase in miscarriage and fetal death”. For the same compound, the stopping uterine contractions result in the data set on uterine contractions is listed as “effective in stopping uterine contractions”.

Values taken from patent publication US20110166070A1, “METHOD OF PREVENTING PREMATURE DELIVERY” (priority 2008, published 2011).
